Laboratory results taken from US10487091B2, “Activators of autophagic flux and phospholipase D and clearance of protein aggregates including tau and treatment of proteinopathies” (THE TRUSTEES OF COLUMBIA UNIVERSITY IN THE CITY OF NEW YORK, priority 2015, dated 2019).
Like-named read-outs stand apart in the source and are kept apart here.

Key:
Tau/aggregate = Tau/aggregate inhibition in HEK 293 cells expressing mKate2-tagged Tau; assay type: cell-based, Human; conditions: for inhibition at 1 µM: Homo sapiens, HEK293; for % Inhibition Tau/aggregate: @ 2 μM
Experimental: (§1) 1) HEK cells with tet-regulated expression of mKate2 tagged Tau were grown in DMEM medium (Dulbecco's Modified Eagle's Medium) containing 0.5 μg/mL doxycycline (Dox)(MP-Bio#198955), after 3-5 days Dox was removed by washing the cells twice with sterile phosphate buffered saline (PBS; Invitrogen#14190-144), cells were left in DMEM without Dox for 72 hours (to further clear remaining Dox in cells).
(§2) The test compounds (along with CytoID™ dye and Hoechst stain) were added to the cells and incubated for 3 hours. Reference compounds were also used in each plate, Rapamycin was used for autophagy induction and chloroquine was used for lysosomal inhibition. After 3 hours test compound was aspirated off and kept. Cells were then washed and read using a fluorescence plate reader. Hoescht, Cyto-ID™ and mKate2 were measured using 3 distinct wavelengths on the plate reader. The Hoescht measurement allowed normalisation of results across wells. After reading, test compound was re-added and the cells are left for a further 21 hours. At the 24 hour time point cells were once again washed and plates read using the fluorescence plate reader.
(§3) Proteostat™ assay was used to detect aggresomes via measurement of p62. Aggresomes are inclusion bodies that form when the ubiquitin-proteasome machinery is overwhelmed with aggregation-prone proteins. Typically, an aggresome forms in response to some cellular stress, such as hyperthermia, viral infection, or exposure to reactive oxygen species. Aggresomes may provide a cytoprotective function by sequestering the toxic, aggregated proteins and may also facilitate their ultimate elimination from cells by autophagy. Following the final plate read described in the Cyto-ID™ assay described above, Proteostat™ detection reagent was added to every well and the plate was incubated for 15 minutes. Following this incubation, the plate was read by fluorescence plate reader at the specified wavelength. After this plate read, the cells were fixed by incubating with warm paraformaldehyde for 8 minutes. The fixed cells were then read by plate reader as before.
Western blot assays were performed to determine protein changes in Tau and p62. Cells were cultured as above and incubated with test compounds for 24 h. Following test compound incubation, the test compound was aspirated off and cells were washed before harvesting. Cells were spun at a low speed and supernatant was aspirated to leave the cell pellet. The cell pellet was then homogenized in buffer, centrifuged at high speed, and the supernatant aspirated and further separated into total fraction and aggregate fraction allowing quantification of soluble and insoluble proteins. Western blots were run on the samples, gels transferred to nitrocellulose and incubated with antibodies for Tau and p62. After incubation with secondary antibodies for detection, the bands of protein were quantified by chemiluminescence.

Autophagy Markers = assay: Autophagy markers (Cyto-ID assay) in HEK 293 cells; assay type: cell-based, Human
Experimental: The dye used in the kit prevents its accumulation within lysosomes, but enables labelling of vacuoles associated with the autophagy pathway using the LC3 biomarker.
as §2
2) Test samples were prepared in warm FluoroBrite™ DMEM and with 10% FBS and 1% NEAA (FB-DMEM). Rapamycin 200 nM (Enzo #BML-A275-0025) was used for autophagy induction and […] chloroquine was used for lysosomal inhibition (bafilomycin or similar compounds were not used as they give a false negative result in the assay). Dimethyl Sulfoxide 1:1000 (DMSO; Fisher #BP231-100) was used as control. Autophagosome marker Cyto ID™ (1:500; Enzo #ENZ-51031-k200) and Hoechst (1:200) was added to these test sample preparations before treating the cells.
7) At 24 hours post reaction all medium was aspirated and the plate was washed 3 times with warm FB-DMEM, and read again for Hoescht (Ex=355 nm Em=446 nm), CytoID™ (Ex=463 nm; Em=534 nm) and mKate2 (Ex=575 nm; Em=630 nm) in 80 μl of FB-DMEM.

phospholipase D (PLD) = assay: PLD assay (conversion of phospholipids to phosphatidylethanols in presence of ethanol, LC/MS); assay type: cell-based, mice; set-up: key: NC—no change; conditions: PLD activation, fold; 24 hours incubation
Experimental: Cells were incubated with test compound for 24 hours. 25 minutes prior to harvest at 24 hours, 3% ethanol solution was added to the wells to catalyze cleavage of the phospholipid. Cells were then placed on ice, washed and harvested. The harvested cells were centrifuged and the supernatant was aspirated and the pellet kept. The pellet was resuspended and chloroform/methanol lipid extraction was performed. The sample was centrifuged and the organic layer was separated, dried under nitrogen and stored at −80° C. On the day of analysis, samples were resuspended and analysed by LC/MS. All phosphatidylethanol species (PEtOH32-40:0-6:16/18:0/1) were combined together and represented as total lipid content (all lipid species).
The assay was run in e18 primary cortical neurons from PLD1 or PLD2 KO mice cultured for 14 days. Alternatively, the assay can be run in the cells described above in the presence of excess PLD1 or PLD2 inhibitor to preclude that particular action from contributing to the effect of the drug.
4) On the day of experiment, cells were washed in warmed HBSS twice before media containing test compound (n=3 per compound per dose), inhibitor (355 nM ML298 or 50 nM VU0150669), or vehicle are added to the wells (1.5 mL in 6 well, 600 μL in 12 well). Plates were incubated for 24 hours at 37° C. with 5% CO2.
5) 25 minutes prior to harvest, a 165 μL of a 3% ethanol solution was added to each well.
PLD activation converts phospholipids to phosphatidylethanols in the presence of ethanol. […] FIPI is a non-competitive inhibitor of PLD activity and was used as a negative control.

[1] = Cytotoxicity LC50 (XTT assay for cell viability); assay type: cell-based; conditions: human, transfected HEK 293 cells that express mKate2-tagged Tau;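 further: cells carry doxycycline-repressible Tau, induced by withdrawing doxycycline for 72 h before compound exposure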
Experimental: The cells were grown in the presence of the antibiotic doxycycline. When the antibiotic is removed the cells produce Tau (which can be quantified), thus allowing the test compounds' effects on Tau's production to be compared. Doxycycline was removed for 72 hours prior to exposure to the test compounds to promote sufficient Tau production. Cells were subsequently plated into plates for each of the assays described below.

aggregates (Proteostat) = assay: Proteostat protein aggregation assay EC50; assay type: cell-based; conditions: Homo sapiens; 50% reduction of Proteostat levels (fluorescent marker of aggregates)
Source text: as §3
8) Detection solution was prepared by adding 10 μl Proteostat™ detection reagent (ENZ-51023-KP002) and 200 μL of 10× assay buffer into 1790 μL water and mixing well.
9) 20 μL was added per well (each well had 80 μl of Fluorobrite™ media with no FBS) and incubated in the dark for 15 min at room temperature.
10) Fluorescence for Proteostat™ (Ex=550 nm; Em=600 nm) was then read.

mKate2 tagged Tau = assay: Tau-mKate2 fluorescence EC50; assay type: cell-based; conditions: Homo sapiens; 50% reduction of mKate2 fluorescence (tau tag)
Experimental: as §1
as §2, with “After 3 hours test compound was aspirated off and kept.” left out, “The Hoescht measurement allowed normalisation of results across wells.” left out
5) Treatment plate was then washed quickly 3 times with warm FB-DMEM (100 μL/well). […] At this point, the plate was ready for reading. See details in Reading Plate section. Hoescht was read at Excitation wavelength (Ex)=355 nm & Emission wavelength (Em)=446 nm. mKate2 was read at Ex=575 nm & Em=630 nm. Cyto-ID™ was read at Ex=463 nm & Em=534 nm. […]

Row | SMILES | inhibition at 1 µM (Tau/aggregate) | % Increase Autophagy Markers (Autophagy Markers) | PLD (phospholipase D (PLD)) | CC50 ([1]; read-out: Cyto-toxixity LC50) | % Inhibition Tau/aggregate (Tau/aggregate) | % Increase Autophagy Markers (Autophagy Markers; @ 2 μM) | CC50 ([1]; XTT assay, 200 = upper concentration limit tested, read-out: LC50 (the source's name)) | EC50 (aggregates (Proteostat)) | EC50 (mKate2 tagged Tau)
1 | Fc1ccc2ncnc(SC3CCCCC3)c2c1 [WHYKD12] | 60% | 40% | 3.4 X | > 100 µM |  |  |  |  | 
2 | Fc1ccc2ncnc(Cl)c2c1 [WHYKD9] |  |  |  | > 100 µM | No Effect @ 2 μM | No Effect @ 2 μM |  |  | 
3 | Cn1nnnc1Sc1ncnc2ccc(Br)cc12 [WHYKD3] |  |  | NC | > 100 µM | No Effect @ 2 μM | No Effect @ 2 μM |  |  | 
4 | Fc1ccc2ncnc(SC3CCOCC3)c2c1 [WHYKD19] | 55% | 35% | 3.5 X | > 100 µM |  |  |  |  | 
5 | Oc1ccc(CCNc2ncnc3ccsc23)cc1 [WHYKD23] |  |  |  | > 100 µM | No Effect @ 2 μM | No Effect @ 2 μM |  |  | 
6 | Fc1ccc2ncnc(SC3CC4CCC3C4)c2c1 (stereo not drawn) [WHYKD16] |  |  |  | > 100 µM | No Effect @ 2 μM | No Effect @ 2 μM |  |  | 
7 | Cn1nnnc1Sc1ncnc2ccc(Cl)cc12 [WHYKD7] |  |  |  | > 100 µM | No Effect @ 2 μM | No Effect @ 2 μM |  |  | 
8 | Oc1ccc(CCNc2ncnc3sccc23)cc1 [WHYKD22] |  |  |  | > 100 µM | No Effect @ 2 μM | No Effect @ 2 μM |  |  | 
9 | CC1(Sc2ncnc3ccc(F)cc23)CCC2CC1C2(C)C (stereo not drawn) [WHYKD13] |  |  |  | > 100 µM | No Effect @ 2 μM | No Effect @ 2 μM |  |  | 
10 | Ic1ccc2ncnc(SC3CCCC3)c2c1 [WHYKD30] |  |  |  |  |  |  | > 200 µM | 2510 nM | 1110 nM
11 | Fc1ccc2ncnc(SC3CCCC3)c2c1 [WHYKD15] | 65% | 40% | 3.6 X | > 100 µM |  |  |  |  | 
12 | Cn1nnnc1Sc1ncnc2ccc(-c3cccc4ccccc34)cc12 [WHYKD4] |  |  |  | > 100 µM | No Effect @ 2 μM | No Effect @ 2 μM |  |  | 
13 | Fc1ccc2ncnc(SC3Cc4ccccc4C3)c2c1 [WHYKD20] |  |  |  | > 100 µM | No Effect @ 2 μM | No Effect @ 2 μM |  |  | 
14 | Cn1nnnc1Sc1ncnc2ccccc12 [WHYKD6] |  |  |  | > 100 µM | No Effect @ 2 μM | No Effect @ 2 μM |  |  | 
15 | Oc1ccc(CCNc2ncnc3ncsc23)cc1 [WHYKD21] |  |  |  | > 100 µM | No Effect @ 2 μM | No Effect @ 2 μM |  |  | 
16 | Cn1nnnc1Sc1ncnc2ccc(F)cc12 [WHYKD5] | 35% | 20% | 1.7X | > 100 µM |  |  |  |  | 
17 | Fc1ccc2ncnc(SC34CC5CC(CC(C5)C3)C4)c2c1 [WHYKD14] |  |  |  | > 100 µM | No Effect @ 2 μM | No Effect @ 2 μM |  |  | 
18 | O=c1[nH]cnc2ccc(F)cc12 [WHYKD24] | 30% | 15% |  | > 100 µM |  |  |  |  | 
19 | Cn1nnnc1Sc1ccnc2ccccc12 [WHYKD10] |  |  |  | > 100 µM | No Effect @ 2 μM | No Effect @ 2 μM |  |  | 
20 | Cn1nnnc1Sc1ncnc2scnc12 [WHYKD1] |  |  | NC | > 100 µM | No Effect @ 2 μM | No Effect @ 2 μM |  |  | 
21 | Cn1nnnc1Sc1ccnc2ccc(F)cc12 [WHYKD11] |  |  |  | > 100 µM | No Effect @ 2 μM | No Effect @ 2 μM |  |  | 
22 | COC(=O)CC12CC3CC(C1)CC(Sc1ncnc4ccc(F)cc14)(C3)C2 [WHYKD18] |  |  |  | > 100 µM | No Effect @ 2 μM | No Effect @ 2 μM |  |  | 
23 | Oc1ccc(CCNc2ncnc3scnc23)cc1 [WHYKD2] |  |  |  | > 100 µM | No Effect @ 2 μM | No Effect @ 2 μM |  |  | 
